Like-named read-outs stand apart in the source and are kept apart here.
Assays:
[1] = test system: PC-3 human prostate cancer cell line; assay: cells; settings: Homo sapiens
Text: (§1) Cells were stained with SRB solution.

Bovine brain tubulin = assay: In vitro tubulin polymerization assay (bovine brain tubulin); type: biochemical; settings: 10 μM
Method: The spectrophotometer was maintained at 37° C. for tubulin polymerization.

[2] = test system: tubulin (colchicine, vinblastine and paclitaxel binding sites); assay: MS competition binding assay; settings: competitive mass binding assay
Text: Each reaction was run in triplicate.

[3] = Rotarod test (in vivo neurotoxicity); design: species or system mouse; settings: ICR mice, i.p. daily; 1h 5 or 15 mg/kg, vinblastine 0.5 mg/kg
Method: ICR mice received training three times a day for two days to enable them to stay on the rotating rod for >120 seconds at 12 rpm. Mice were then randomized by the length of time that they could stay on the rotating rod and divided into 7-8 mice per group. […] The rotarod test was performed twice a week. […] The rod speed was increased from […] to 40 rpm over a period of 5 min. Performance was measured as the length of time that a mouse could stay on the rotating rod.

[4] = ICR, mouse, in vivo, ip
PC-3 xenograft = assay: In vivo PC-3 prostate tumor xenograft
[5] = test system: NCI/ADR-RES (P-gp over-expressing resistant line of OVCAR-8); assay: Cytotoxicity (SRB) assay, NCI/ADR-RES; type: cell-based, human; settings: NCI/ADR-RES versus OVCAR-8
[6] = test system: melanoma and prostate cancer cell lines; assay: Antiproliferative activity summarised over the cell line panel (range or average); type: cell-based; settings: read-out: IC50 (range over tested cell lines)
PC-3 cells [7] = assay: Apoptosis detection by ELISA (cytoplasmic DNA-histone complexes), PC-3; type: cell-based, human; settings: PC-3 and A375 cells, 24 h
Text: Quantification of the Enrichment of Mono- and oligonucleosomes in the cytoplasm was used to determine the ability of the compounds to induce apoptosis (cell death detection ELISA PLUS, Roche, Germany) following the manufacturer's instructions.

in vivo = settings: male, ICR, mouse, plasma, iv, 15 mg/kg
[8] = test system: B16-F1 mouse melanoma cell line; assay: Cytotoxicity (SRB) assay, B16-F1; type: cell-based; settings: Mus musculus, B16-F1, SRB assay, mouse melanoma B16-F1; read-out: IC50 B16-F1
[9] = test system: A375 human melanoma cell line; assay: Cytotoxicity (SRB) assay, A375; type: cell-based; settings: Homo sapiens, A-375, SRB assay, human melanoma A375; read-out: IC50 A375
[10] = test system: DU 145 human prostate cancer cell line; assay: Cytotoxicity (SRB) assay, DU 145; type: cell-based; settings: Homo sapiens, DU-145, SRB assay, prostate cancer DU 145; read-out: IC50 DU 145
Text: as §1

[11] = test system: LNCaP human prostate cancer cell line; assay: Cytotoxicity (SRB) assay, LNCaP; type: cell-based; settings: Homo sapiens, LNCaP, SRB assay, prostate cancer LNCaP; read-out: IC50 LNCaP
Text: as §1

[12] = test system: PPC-1 human prostate cancer cell line; assay: Cytotoxicity (SRB) assay, PPC-1; type: cell-based; settings: Homo sapiens, PPC-1, SRB assay, prostate cancer PPC-1; read-out: IC50 PPC-1
Text: as §1

[13] = Pharmacokinetic study in Sprague-Dawley rats; settings: rat
[14] = Aqueous solubility, Multiscreen Solubility Filter Plate, PBS pH 7.4
PC-3 cells [15] = assay: Cell cycle analysis (PI staining, FACS), PC-3; type: cell-based; settings: Homo sapiens, read-out: G2M phase arrest EC50
Method: Cell cycle distribution was determined by propidium iodide (PI) staining. Treated cells were washed with PBS and fixed with 70% ice-cold ethanol overnight. Fixed cells were then stained with 20 μg/mL of PI in the presence of RNase A (300 μg/mL) at 37° C. for 30 min. Cell cycle distribution was analyzed by fluorescence-activated cell sorting (FACS) analysis core services at the University of Tennessee Health Science Center, TN.
Flow cytometry was performed to study the effects of the compounds on cell cycle distribution. […] Cellular DNA was stained with 100 μg/mL propidium iodide and 100 μg/mL RNase A in PBS and flow cytometry was performed to determine the cell cycle distribution of the cells.

[16] = test system: T1, tubulin colchicine binding site; assay: [3H]-colchicine competition-binding scintillation proximity assay; settings: SPA, 0.03-100 μM
T1 construct: […]

WM-164 melanoma cells = assay: Microtubule imaging (immunofluorescence); type: cell-based, human; settings: WM-164 cells, 18 h
Text: Primary antibody for tubulin and fluorescence-labeled secondary antibody were subsequently added to the cells. Cell nuclei were stained by DAPI. Whole Cell Stain Green was also applied to all cells. All images were acquired with an Olympus IX71 inverted fluorescence microscope (Olympus Corp., Tokyo, Japan) with overlays from separate images of tubulin (red), nuclei (blue), and whole cells (green).

[17] = test system: HUVEC (Human Umbilical Vein Endothelial Cells); assay: Endothelial cell growth inhibition (SRB); type: cell-based; settings: HUVEC vs prostate cancer cells
[18] = test system: HUVEC capillary tube formation on Matrigel; assay: Capillary formation assay; type: cell-based, human; settings: at toxic concentration
[19] = test system: confluent HUVEC monolayers; assay: Endothelial monolayer permeability assay; settings: FITC-dextran leakage, 1, 2, 4 h
[20] = read-out: IC50 PC-3, SRB assay, prostate cancer PC-3
[21] = read-out: IC50 ± SEM, PC-3, Table 21, n = 3
[22] = IV, 1h and 2r […], 5Ha and 5Hc 5 mg/kg

COc1cc(C(=O)c2csc(-c3ccccc3)n2)cc(OC)c1OC [1h, (2-Phenyl-thiazol-4-yl)-(3,4,5-trimethoxy-phenyl)-methanone]
IC50 [1, 20]: 29.1 ± 1.1 nM | IC50 ([1]; read-out: IC50 in PC3, Table 16B): 21 nM | IC50 [1, 21]: 21 ± 1 nM | inhibition of tubulin polymerization (Bovine brain tubulin; absorbance 340 nm over 15 min): 90% | inhibition of tubulin polymerization (Bovine brain tubulin; after 20 min incubation, vs vehicle): 47% | competition for tubulin binding sites in words [2]: specifically competed with colchicine binding to tubulin | rotarod performance in words [3]: no significant difference | dose not causing greater than 10% loss of body weight [4]: up to 30 mg/kg | % T/C (PC-3 xenograft; PC-3, 5 mg/kg i.p.): 29% | % T/C (PC-3 xenograft; PC-3, 15 mg/kg i.p.): 4% | mice that lost more than 15% body weight (PC-3 xenograft; PC-3 xenograft, 15 mg/kg i.p.): 1 of 8

COc1cc(C(=O)c2csc(-c3ccc(O)cc3)n2)cc(OC)c1OC [2l, (2-(4-Hydroxyphenyl)thiazol-4-yl)(3,4,5-trimethoxyphenyl)methanone]
IC50 [1, 20]: 87 nM | IC50 [1, 21]: 87 ± 5 nM | Resistance factor [5]: 0.4 | IC50 [6]: 76 to 116 nM | concentration inducing apoptosis (PC-3 cells [7]): greater than or equal to 200 nM | AUC (in vivo): 2600 ng·h/mL | Vd (in vivo): 16.5 L/kg | clearance (in vivo): 90 mL/min/kg | half-life (in vivo): 12.3 h | % T/C (PC-3 xenograft; PC-3, 50 mg/kg i.p.): 34% | % T/C (PC-3 xenograft; Prostate (PC-3) xenograft, 50 mg/kg i.p.): 34%

COc1cc(C(=O)c2csc(-c3ccc(CN)cc3)n2)cc(OC)c1OC.Cl [2r, (2-(4-(Aminomethyl)phenyl)thiazol-4-yl)(3,4,5-trimethoxyphenyl)methanone hydrochloride]
IC50 [8]: 38 ± 11 nM | IC50 [9]: 41 ± 13 nM | IC50 [10]: 25 nM | IC50 [1, 20]: 80 nM | IC50 [11]: 13 nM | IC50 [12]: 34 nM | IC50 [6]: 13 to 80 nM | F, percent oral bioavailability [13]: 0.2% | CL, systemic clearance [13, 22]: 22 ± 13 mL/min/kg | Vss, volume of distribution following intravenous dosing [13, 22]: 0.33 ± 0.25 L/kg | Cmax, PO ([13]; PO, 1h, 5Ha, 5Hc 10 mg/kg, 2r 4 mg/kg): 3794 ± 1580 ng/mL | increase of solubility ([14]; HCl salt, PBS): over 35 fold | aqueous solubility in PBS ([14]; PBS pH 7.4): over 35 μg/mL

COc1cc(-c2nccc3ccc(-c4ccc5[nH]ccc5c4)cc23)cc(OC)c1OC [6a]
IC50 ([1]; read-out: IC50, PC-3, Table 7): 64.4 ± 12.2 nM | EC50 (PC-3 cells [15]): 53.4 nM

c1cc2ccc(-c3ccc4[nH]ccc4c3)cc2c(-c2ccc3[nH]ccc3c2)n1 [6b, 1,7-Bis-(1H-indol-5-yl)-isoquinoline]
EC50 (PC-3 cells [15]): 91.9 nM

COc1cc(C(=O)c2c[nH]c(-c3ccc(C)cc3)n2)cc(OC)c1OC [12da, (2-(p-tolyl)-1H-imidazol-4-yl)(3,4,5-trimethoxyphenyl)methanone]
colchicine site binding in words [16]: highest binding affinity | effect on microtubules in words (WM-164 melanoma cells): microtubule fragmentation

COc1cccc2c1C(=O)c1c(O)c3c(c(O)c1C2=O)C[C@@](O)(C(=O)CO)C[C@@H]3O[C@H]1C[C@H](N)[C@H](O)[C@H](C)O1 [doxorubicin]
times more active against endothelial cells than against cancer cells [17]: not specific to endothelial cells | capillary construction in words [18]: did not affect the capillary construction | permeability of endothelial cell monolayer in words [19]: did not induce any change

CC(=O)O[C@H]1C(=O)[C@@]2(C)[C@H]([C@H](OC(=O)c3ccccc3)[C@]3(O)C[C@H](OC(=O)[C@H](O)[C@@H](NC(=O)c4ccccc4)c4ccccc4)C(C)=C1C3(C)C)[C@]1(OC(C)=O)CO[C@@H]1C[C@@H]2O [paclitaxel, reference compound]
colchicine site binding in words [16]: only a flat line | effect on microtubules in words (WM-164 melanoma cells): condensation of microtubules

Reference: US11465987B2, “Compounds for treatment of cancer” (ONCTERNAL THERAPEUTICS, INC., priority 2012, dated 2022)
